Values quoted from earlier work as cited in US8828877B2, “Etching solution and trench isolation structure-formation process employing the same” (AZ Electronic Materials USA Corp., priority 2009, dated 2014).

Legend:
[1] = in water at 20° C.; "any" = can mix with water in any proportion
[2] = for δH: Hansen solubility parameter, strength of hydrogen bond; for Organic solvent δH: as given in Table 2 for the solvent of the etching solution

| Structure (SMILES) | Saturation solubility [1] | δH [2] | Organic solvent δH [2] |
| --- | --- | --- | --- |
| CC(C)=O [Acetone] | any | 7.0 | 7.0 |
| C=CCOC(=O)CC(C)=O [Allyl acetoacetate] | 5.0 wt % | 8.6 |  |
| CCOCC [Diethyl ether] | 6.9 wt % | 5.1 |  |
| CCCCOCCOCCOC(C)=O [Diethyl glycol butyl ether acetate] | 6.5 wt % | 8.2 |  |
| CCCCOCCOCCO [Diethyl glycol monobutyl ether] | 6.5 wt % | 10.6 |  |
| CCC(=O)CC [Diethyl ketone] | 5.0 wt % | 4.7 |  |
| COCOC [Dimethoxymethane] | 32.3 wt % | 8.6 |  |
| COC [Dimethyl ether] | 32.8 wt % | 5.7 |  |
| COC(C)COC(C)COC(C)=O (stereo not shown) [Dipropylene glycol monomethyl ether acetate] | 12.0 wt % | 8.0 |  |
| CCOC(C)=O [Ethyl acetate] |  | 7.2 |  |
| COCCOC [Ethylene glycol dimethyl ether] | any |  |  |
| CCOCCOC(C)=O [Ethylene glycol monoethyl ether acetate] | 23.0 wt % | 10.6 |  |
| COCCOC(C)=O [Ethylene glycol monomethyl ether acetate] | any | 11.6 | 10.6 |
| C=C(C)C(=O)O [Methacrylic acid] | 9.7 wt % | 10.2 |  |
| COC(C)=O [Methyl acetate] | 25.0 wt % | 7.6 |  |
| COC(=O)CC(C)=O [Methyl acetoacetate] | 46.0 wt % | 8.9 |  |
| CCOC [Methyl ethyl ether] | ≥ 5.0 wt % | 6.2 |  |
| CC(=O)C=O [Methylglyoxal] | ≥ 40.0 wt % |  |  |
| CCC=O [Propion aldehyde] | 20.0 wt % |  |  |
| CCOCC(C)OC(C)=O (stereo not shown) [Propylene glycol monoethyl ether acetate] | ≥ 5.0 wt % | 9.0 |  |
| CCOCC(C)O (stereo not shown) [Propylene glycol monoethyl ether] | any | 10.5 |  |
| COCC(C)OC(C)=O (stereo not shown) [Propylene glycol monomethyl ether acetate] | 19.0 wt % | 9.8 | 9.0 |
| COCC(C)O (stereo not shown) [Propylene glycol monomethyl ether] |  | 11.6 | 10.5 |
| COC(C)COC(C)COC(C)CO (stereo not shown) [Tripropylene glycol monomethyl ether] | any | 10.4 |  |
| CC(C)O [isopropyl alcohol, reference compound] |  | 16.4 | 16.4 |
